{"source": "patent US20090030039A1", "about": "“Piperidine Derivatives as Cxcr3 Receptor Antagonists” (priority 2006, published 2009)", "key": {"human CXCR3": {"biological_target": "T1, human CXCR3 (Homo sapiens, UniProt P49682)", "T1 construct": "expressed in transfected cells; host or cells: CHO cells (membrane preparation)", "T1 sequence (P49682 1-368)": "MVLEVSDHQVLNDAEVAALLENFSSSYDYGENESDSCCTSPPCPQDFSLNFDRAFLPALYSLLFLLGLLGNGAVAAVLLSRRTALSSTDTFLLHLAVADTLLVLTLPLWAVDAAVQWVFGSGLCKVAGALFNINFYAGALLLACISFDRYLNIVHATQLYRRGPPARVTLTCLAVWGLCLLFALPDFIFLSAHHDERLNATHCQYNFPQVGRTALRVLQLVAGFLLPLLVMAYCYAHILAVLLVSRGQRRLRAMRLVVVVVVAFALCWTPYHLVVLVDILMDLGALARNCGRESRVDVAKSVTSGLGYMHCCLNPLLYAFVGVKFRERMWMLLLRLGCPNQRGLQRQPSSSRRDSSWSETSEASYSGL", "test": "[35S]GTPγS exchange assay, CXCR3 receptor inhibition (hI-TAC-induced GTPγS-binding)", "assay_type": "biochemical", "conditions": "-log IC50 (molar) inhibiting 50% of specific I-TAC-induced GTPγS-binding; membranes of human CXCR3-transfected CHO cells"}}}
{"smiles": "CN1C(=O)CCC(c2ccccc2)(C2CCN(Cc3ccc(Br)cc3)CC2)C1=O", "note": "(centres unmarked) [Compound 125]", "values": [{"measurement": "pIC50", "setting": "human CXCR3", "value": 5.6}, {"measurement": "melting point", "value": "298.1 to 303.1", "unit": "°C"}]}
